# Test results reported in publication PMC4669382 (mBio, 2015).
# Assays:
# C. albicans Bar1 [1] = assay: 127 nM C. albicans Bar1 in 50 µM potassium phosphate solution; conditions: 37°C, up to 24 h
# S. cerevisiae Bar1 = conditions: cited from earlier work
# Bar1(D232A) [2] = assay: 127 nM Bar1; conditions: C. albicans, 37°C, up to 1 h
# Bar1(D232A) [3] = assay: 60 nM Bar1; conditions: C. albicans, 37°C, up to 90 min
# C. albicans Bar1 [4] = assay: Bar1 activity on bovine serum albumin; format: biochemical, Candida albicans; conditions: tested at high protein concentrations, data not shown
Substance,cleaved bond (C. albicans Bar1 [1]),other results
GFRLTNFGYFEAA,,not cleaved (C. albicans Bar1 [1]): no products were detected
GFRLTNFGYAAPG,,not cleaved (C. albicans Bar1 [1]): no products were detected
pepstatin A,,sensitivity of S. cerevisiae Bar1 to inhibitor (S. cerevisiae Bar1): insensitive
GFAATNFGYFEPG,"T5-N6, 1 h",
KFKLTNFGYFEPG,"Thr5-Asn6, 1 h",
GFRLTNFGYEAAG,,not cleaved (C. albicans Bar1 [1]): no products were detected
bovine serum albumin: bovine serum albumin tested as a Bar1 substrate,,Bar1 activity on protein substrate (C. albicans Bar1 [4]): no detectable activity
GFRLTNFGAAEPG,,not cleaved (C. albicans Bar1 [1]): no products were detected

# Now from value to substance, other results behind:
cleaved bond (C. albicans Bar1 [1]),Substance,other results
"T5-N6, 1 h",GAALTNFGYFEPG,
"T5-A6, 1 h",GFRLTAAGYFEPG,
"A5-A6, 1 h",GFRLAAFGYFEPG,
"T5-N6, 1 h",GFRLTNAAYFEPG,
"A5-N6, 1 h",GFRAANFGYFEPG,
"T5-N6, 1 h",GFRLTNFAAFEPG,
"T5-N6, 1 h",AARLTNFGYFEPG,
"threonine5-asparagine6, major, 1 h",GFRLTNFGYFEPG,not cleaved (Bar1(D232A) [2]): no cleavage products were generated; not cleaved (Bar1(D232A) [3]): no detectable cleavage activity
